pIC50: −log10 of the molar value.
These compounds were tested against T1, Ubiquitin-conjugating enzyme E2 N (Homo sapiens, UniProt P61088) (assay: UBC13 polyubiquitination inhibitor potency, dose response, biochemical, TR-FRET, reconfirmation (AID 493182)).
T1 sequence (P61088 whole entry): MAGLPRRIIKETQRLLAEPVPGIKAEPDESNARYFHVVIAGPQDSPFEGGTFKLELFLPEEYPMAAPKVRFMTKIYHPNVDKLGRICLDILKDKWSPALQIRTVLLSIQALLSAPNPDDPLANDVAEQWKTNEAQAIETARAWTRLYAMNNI

Row | Structure (SMILES) | pIC50
1 | C#CCOCCOCCOCCNc1nc(N2CCN(C(=O)CCCCCCCCCCNC(=O)Cn3cc(CCCCCN)nn3)CC2)nc(N2CCN(C(=O)CCCCCCCCCCNC(=O)Cn3cc(C[C@@H](C)O)nn3)CC2)n1 [KG-TG] | 5.13
2 | C#CCOCCOCCOCCNc1nc(N2CCN(C(=O)CCCCCCCCCCNC(=O)[C@H]([C@@H](C)CC)n3cc(CCCCN=C(N)N)nn3)CC2)nc(N2CCN(C(=O)CCCCCCCCCCNC(=O)[C@@H]([C@H](C)O)n3cc(C)nn3)CC2)n1 [GT-RI] | 5.33
3 | C#CCOCCOCCOCCNc1nc(N2CCN(C(=O)[C@H](CCCCN)n3cc([C@@H](N)C(C)CC)nn3)CC2)nc(N2CCN(C(=O)[C@H](Cc3ccc(O)cc3)n3cc([C@@H](N)C(C)CC)nn3)CC2)n1 (stereo not given in full) [SMR000391090] | 4.99
4 | CCNC(=S)NNC1=c2cc(C(C)C)ccc2=NC1=O [1-ethyl-3-[(2-oxo-5-propan-2-yl-3-indolyl)amino]thiourea] | 5.60
5 | CC(C)NC(=S)NNC1=c2cc(C(C)C)ccc2=NC1=O [SMR000242097] | 5.45
6 | Cc1cccc2c1C(=NNC(N)=S)C(=O)N2C1OC(CO)C(O)C(O)C1O (stereo not given) [The compound has not trivial name.] | 5.34
7 | COC(=O)c1ccc(CN2C(=O)C(=NNC(N)=S)c3ccccc32)o1 | < 4.70
8 | CCOC(=O)c1c(C)c2c(n1C)CCCC2N=O (stereo not given) [MLS000026784] | 5.06
9 | COc1cc(C2c3c(-c4cccs4)n[nH]c3OC(=N)C2C#N)cc(OC)c1O (stereo not given) [SMR000275523] | 5.83
10 | Oc1c(Cc2cnc[nH]2)[nH]c(=S)n1-c1ccccc1 [MLS001163810] | 5.40
11 | O=C1Nc2ccc([N+](=O)[O-])cc2C1=NNC(=S)NCC1CCCO1 (stereo not given) | 6.18
12 | C#CCOCCOCCOCCNc1nc(N2CCN(C(=O)CCCCCCCCCCNC(=O)[C@@H](CCSC)n3cc(CCO)nn3)CC2)nc(N2CCN(C(=O)CCCCCCCCCCNC(=O)[C@H](CCC(=O)O)n3cc(CCCCCN)nn3)CC2)n1 [MLS002153730] | 4.80
13 | C#CCOCCOCCOCCNc1nc(N2CCN(C(=O)[C@H](Cc3cc4ccccc4[nH]3)n3cc([C@@H](N)C(C)CC)nn3)CC2)nc(N2CCN(C(=O)[C@H](CCCCN)n3cc([C@@H](N)CC(C)C)nn3)CC2)n1 (stereo not given in full) [MLS000562581] | 5.68
14 | O=C1Nc2ccccc2/C1=N/NC(=S)Nc1ccc(O)cc1 [1-(4-hydroxyphenyl)-3-[(2-oxidanylideneindol-3-yl)amino]thiourea] | 6.12
15 | CC(=O)N1N=C(C2C(=O)N(C)C(=O)N(C)C2=O)CC1c1ccccc1 (stereo not given) [5-(1-acetyl-5-phenylpyrazolidin-3-ylidene)-1,3-dimethyl-1,3-diazinane-2,4,6-trione] | 4.71
16 | CCOC(=O)C1C(COC(=O)c2cc(OC)c(OC)c(OC)c2)=NC(=O)NC1C (stereo not given) [MLS001161811] | 5.07
17 | C#CCOCCOCCOCCNc1nc(N2CCN(C(=O)CCCCCCCCCCNC(=O)[C@H]([C@@H](C)CC)n3cc(CCCCN=C(N)N)nn3)CC2)nc(N2CCN(C(=O)CCCCCCCCCCNC(=O)[C@H](CCCCN)n3cc(C)nn3)CC2)n1 [RI-GK] | 5.78
18 | CCOC(=O)C1C(COC(=O)c2ncc(Cl)c(Cl)c2Cl)=NC(=O)NC1C (stereo not given) | 5.03
19 | C#CCOCCOCCOCCNc1nc(N2CCN(C(=O)C([C@@H](C)CC)n3cc(C(N)COC(=O)C(F)(F)F)nn3)CC2)nc(N2CCN(C(=O)[C@H](CCCCN)n3cc(C(N)CC(C)C)nn3)CC2)n1 (stereo not given in full) [SMR000453712] | 4.82
20 | COc1ccc(CN=Nc2cc(C)nc3ccc(OC)cc23)c(OC)c1 | 5.19
21 | CC1=CC(C)(C)N2C(=O)/C(=N\NC(N)=S)c3cccc1c32 [SMR000218901] | 5.32
22 | C#CCOCCOCCOCCNc1nc(N2CCN(C(=O)[C@H](CCCN=C(N)N)n3cc(C(N)[C@H](C)CC)nn3)CC2)nc(N2CCN(C(=O)[C@H](CCCN=C(N)N)n3cc(C(N)[C@@H](C)CC)nn3)CC2)n1 (stereo not given in full) [MLS002473475] | 4.71
23 | C#CCOCCOCCOCCNc1nc(N2CCN(C(=O)CCCCCCCCCCNC(=O)[C@H](CCCCN)n3cc(CCO)nn3)CC2)nc(N2CCN(C(=O)CCCCCCCCCCNC(=O)[C@@H]([C@H](C)O)n3cc(C)nn3)CC2)n1 [MLS002153685] | 5.14
24 | CCN(CC)CCOC(=O)c1ccc(N=CC(C#N)c2nc(-c3ccc(OC)c(OC)c3)cs2)cc1 (stereo not given) [SMR000434079] | 5.52
25 | CCN(CC)CCOC(=O)c1ccc(N=CC(C#N)c2nc(-c3ccc4c(c3)OCO4)cs2)cc1 (stereo not given) [2-(diethylamino)ethyl 4-[[(Z)-2-[4-(1,3-benzodioxol-5-yl)-1,3-thiazol-2-yl]-2-cyano-ethenyl]amino]benzoate] | 5.29

Row | Structure (SMILES) | pIC50
26 | C#CCOCCOCCOCCNc1nc(N2CCN(C(=O)CCCCCCCCCCNC(=O)[C@@H](CCSC)n3cc(CCO)nn3)CC2)nc(N2CCN(C(=O)CCCCCCCCCCNC(=O)[C@H](CO)n3cc(CCCCCN)nn3)CC2)n1 [MLS002153734] | 5.37
27 | C#CCOCCOCCOCCNc1nc(N2CCN(C(=O)CCCCCCCCCCNC(=O)Cn3cc(CCCCCN)nn3)CC2)nc(N2CCN(C(=O)CCCCCCCCCCNC(=O)Cn3cc(CCCCCN)nn3)CC2)n1 [SMR001231146] | 5.47
28 | COCCNC(=S)NNC1=c2cc(C)cc(C)c2=NC1=O [MLS000774564] | 6.25
29 | C#CCOCCOCCOCCNc1nc(N2CCN(C(=O)[C@H](Cc3cc4ccccc4[nH]3)n3cc([C@@H](N)C(C)CC)nn3)CC2)nc(N2CCN(C(=O)[C@H](Cc3cc4ccccc4[nH]3)n3cc([C@@H](N)Cc4ccc(O)cc4)nn3)CC2)n1 (stereo not given in full) [SMR000391146] | 5.20
30 | CCN(CC)CCOC(=O)c1ccc(N=CC(C#N)c2nc(-c3ccc(OC)cc3)cs2)cc1 (stereo not given) [4-[[(Z)-2-cyano-2-[4-(4-methoxyphenyl)-2-thiazolyl]ethenyl]amino]benzoic acid 2-(diethylamino)ethyl ester] | 5.37
31 | C#CCOCCOCCOCCNc1nc(N2CCN(C(=O)CCCCCCCCCCNC(=O)[C@@H](CCC(=O)O)n3cc(CCCCCN)nn3)CC2)nc(N2CCN(C(=O)CCCCCCCCCCNC(=O)[C@H]([C@@H](C)CC)n3cc(CCCCCN)nn3)CC2)n1 [KI-KE] | 5.18
32 | O=C1N=c2ccccc2=C1NNC(=S)NCC1CCCO1 (stereo not given) | 6.01
33 | CCCCNC(=S)N/N=C1\C(=O)Nc2ccccc21 [1-butyl-3-[(2-oxidanylideneindol-3-yl)amino]thiourea] | 5.22
34 | C#CCOCCOCCOCCNc1nc(N2CCN(C(=O)[C@H](CCCCN)n3cc([C@@H](N)C(C)CC)nn3)CC2)nc(N2CCN(C(=O)[C@H](Cc3cc4ccccc4[nH]3)n3cc([C@@H](N)C(C)CC)nn3)CC2)n1 (stereo not given in full) [MLS000562580] | 5.57
35 | C#CCOCCOCCOCCNc1nc(N2CCN(C(=O)CCCCCCCCCCNC(=O)[C@H](CCCCN)n3cc(CCCC(=O)O)nn3)CC2)nc(N2CCN(C(=O)CCCCCCCCCCNC(=O)[C@H](CCCN=C(N)N)n3cc(C[C@@H](C)CC)nn3)CC2)n1 [EK-IR] | 5.44
36 | C#CCOCCOCCOCCNc1nc(N2CCN(C(=O)[C@H](Cc3cc4ccccc4[nH]3)n3cc([C@@H](N)CC(C)C)nn3)CC2)nc(N2CCN(C(=O)[C@H](Cc3cc4ccccc4[nH]3)n3cc([C@@H](N)CC(C)C)nn3)CC2)n1 [LW-LW] | 5.19
37 | C#CCOCCOCCOCCNc1nc(N2CCN(C(=O)[C@H](CCCCN)n3cc([C@@H](N)CC(C)C)nn3)CC2)nc(N2CCN(C(=O)[C@H](Cc3cc4ccccc4[nH]3)n3cc([C@@H](N)Cc4ccc(O)cc4)nn3)CC2)n1 [SMR000391143] | 5.56
38 | C#CCOCCOCCOCCNc1nc(N2CCN(C(=O)[C@H](CCCCN)n3cc([C@@H](N)C(C)CC)nn3)CC2)nc(N2CCN(C(=O)[C@H](Cc3cc4ccccc4[nH]3)n3cc([C@@H](N)CC(C)C)nn3)CC2)n1 (stereo not given in full) [SMR000391070] | 5.68
39 | CC1CC(C)(C)N2C(=O)/C(=N\NC(N)=S)c3cccc1c32 (stereo not given) [SMR000414933] | 5.31
40 | C#CCOCCOCCOCCNc1nc(N2CCN(C(=O)CCCCCCCCCCNC(=O)Cn3cc(C[C@@H](C)O)nn3)CC2)nc(N2CCN(C(=O)CCCCCCCCCCNC(=O)[C@H](CCCN=C(N)N)n3cc(C[C@@H](C)CC)nn3)CC2)n1 [MLS002153601] | 5.31
41 | C#CCOCCOCCOCCNc1nc(N2CCN(C(=O)CCCCCCCCCCNC(=O)Cn3cc(CCCCCN)nn3)CC2)nc(N2CCN(C(=O)CCCCCCCCCCNC(=O)[C@H]([C@@H](C)CC)n3cc(CCCCCN)nn3)CC2)n1 [MLS002153714] | 5.64
42 | NC(=S)NN=C1C(=O)N(C2OC(=O)c3ccccc32)c2ccccc21 (stereo not given) [[(Z)-[2-oxo-1-(3-oxo-1H-isobenzofuran-1-yl)-3-indolylidene]amino]thiourea] | 5.62
43 | Cc1cc(C)c2c(c1)=C(NNC(=S)NCC1CCCO1)C(=O)N=2 (stereo not given) | 6.29
44 | COCCNC(=S)NN=C1C(=O)Nc2ccc([N+](=O)[O-])cc21 [1-(2-methoxyethyl)-3-[(5-nitro-2-oxoindol-3-yl)amino]thiourea] | 5.82
45 | CCN(CC)CCOC(=O)c1ccc(N=CC(C#N)c2nc(-c3cc4ccccc4oc3=O)cs2)cc1 (stereo not given) [2-(diethylamino)ethyl 4-[[(Z)-2-cyano-2-[4-(2-oxochromen-3-yl)-1,3-thiazol-2-yl]ethenyl]amino]benzoate] | 5.46
46 | C#CCOCCOCCOCCNc1nc(N2CCN(C(=O)CCCCCCCCCCNC(=O)Cn3cc(CCCCCN)nn3)CC2)nc(N2CCN(C(=O)CCCCCCCCCCNC(=O)[C@H](CO)n3cc(CCCSC)nn3)CC2)n1 [MLS002153667] | 5.39
47 | C#CCOCCOCCOCCNc1nc(N2CCN(C(=O)CCCCCCCCCCNC(=O)[C@H]([C@@H](C)CC)n3cc(CCCCCN)nn3)CC2)nc(N2CCN(C(=O)CCCCCCCCCCNC(=O)[C@H](CCCCN)n3cc(CCCC(=O)O)nn3)CC2)n1 [KI-EK] | 5.22
48 | C#CCOCCOCCOCCNc1nc(N2CCN(C(=O)CCCCCCCCCCNC(=O)[C@H](CO)n3cc(CCCSC)nn3)CC2)nc(N2CCN(C(=O)CCCCCCCCCCNC(=O)[C@H](CCCCN)n3cc(CCO)nn3)CC2)n1 [SMR001318322] | 5.24
49 | C#CCOCCOCCOCCNc1nc(N2CCN(C(=O)CCCCCCCCCCNC(=O)[C@H](CCCCN)n3cc(C)nn3)CC2)nc(N2CCN(C(=O)CCCCCCCCCCNC(=O)[C@H](CCCN=C(N)N)n3cc(C[C@@H](C)CC)nn3)CC2)n1 [MLS002153614] | 5.66
50 | C#CCOCCOCCOCCNc1nc(N2CCN(C(=O)CCCCCCCCCCNC(=O)[C@H]([C@@H](C)CC)n3cc(CCCCCN)nn3)CC2)nc(N2CCN(C(=O)CCCCCCCCCCNC(=O)[C@H]([C@@H](C)CC)n3cc(CCCCN=C(N)N)nn3)CC2)n1 [MLS002153718] | 5.66

— BindingDB's records for doi:10.7270/Q2SB4462 (Burnham Center For Chemical Genomics, 2011)
